Measured values from doi:10.1101/2021.06.01.446583v1 (biorxiv, 2021).

Experiments:
Fp231 [1] = assay: CNP release at […] nm, Michaelis-Menten non-linear fit; assay type: biochemical, uncultured Paraglaciecola sp.; details: 0.1-4 mM substrate, 2 nM enzyme
Fp231 [2] = assay: fucose release by HPAEC-PAD, Michaelis-Menten non-linear fit; assay type: biochemical, uncultured Paraglaciecola sp.; details: 0.1-4 mM substrate, 2 nM enzyme

Row | Compound | Km (Fp231 [1]) [µM] | Km (Fp231 [2]) [µM]
1 | C[C@@H]1O[C@@H](Oc2ccc([N+](=O)[O-])cc2Cl)[C@@H](O)[C@H](O)[C@@H]1O [CNP-Fuc, 2-chloro-4-nitrophenyl-α-L-fucopyranoside] | 140 ± 10 | 
2 | CC(=O)N[C@H]1C(O)O[C@H](CO)[C@@H](O[C@@H]2O[C@@H](C)[C@@H](O)[C@@H](O)[C@@H]2O)[C@@H]1O (stereo partly drawn) [Fuc(α1,4)GlcNAc] |  | 660 ± 50
